≈ marks a conversion by molar mass, not a printed value. Where “and” joins values, the source holds several entries; their conditions need not be identical. Identical values can stand only once. Like-named read-outs stand apart in the source and are kept apart here. Numbered stars: 1 amine (or outer) side, 2 acyl side, 3 side chain; on linkers, the order of the positions; unused ones are H or OH. Bridge positions count the residues as written; N and C are the ends. Square brackets hold non-standard residues; d marks the D form. Peptide text beside a SMILES is read from it. * marks the point of attachment. Orn(4R-OH,5R-OH) = O=C([C@H](C[C@@H](O)[C@@H](O)N[*:3])N[*:1])[*:2]; hTyr(3S-OH,4S-OH) = N[C@H](C(=O)O)[C@H](O)[C@@H](O)c1ccc(O)cc1; Pro(3S-OH,4S-Me) = C[C@H]1CN[C@H](C(=O)O)[C@H]1O; Docosanoyl = CCCCCCCCCCCCCCCCCCCCCC(=O)*; Nonadecanoyl = CCCCCCCCCCCCCCCCCCC(=O)*; Arachidoyl = CCCCCCCCCCCCCCCCCCCC(=O)*; X1 = CC/C=C\C/C=C\C/C=C\CCCCCCCC(=O)*; Hyp = O=C(O)[C@@H]1C[C@@H](O)CN1; Tridecanoyl = CCCCCCCCCCCCC(=O)*
Experiments:
[1] = tested on: Saccharomyces pastoranius X-52; experiment: Agar plate disc diffusion test (zone of inhibition); type: cell-based, Saccharomyces pastorianus
Experimental: (§1) Tables II and III give the results of the testing in vitro of the compounds of Examples 1-16 by agar-plate disc-diffusion methods. In Table II activity is measured by the size (diameter in mm.) of the observed zone of inhibition of the microorganism produced by the test compound. In Table III, activity is measured by the minimal inhibitory concentration (MIC) of the substance (μg/dic) required to inhibit growth of the test organism. Table IV gives the results of the testing in vitro of the n-tridecanoyl derivative of A30912A nucleus (Formula III, R is n-C12 H25) against five strains of Candida albicans by the agar dilution method. In […] activity is measured by the minimal inhibitory concentration (MIC) of the substance (μg/ml) required to inhibit the test organism.
(§2) ^(a) Compounds were tested as suspension in methanol at a
(§3) concentration of 1 mg/ml. by dipping a 7mm disc into the suspension and
(§4) placing it on the agar surface. Incubation: 24-48 hours at 25-37°

Candida albicans A-26 [2] = experiment: as above; type: cell-based; details: suspension in methanol 1 mg/ml, 7mm disc; 24-48 hours at 25-37° C.
Experimental: as §1, §2, §3, §4

Neurospora crassa 846 = experiment: as above; type: cell-based
Experimental: as §1, §2, §3, §4

[3] = tested on: Trichophyton mentagraphytes A-23; experiment: as above; type: cell-based, Trichophyton mentagrophytes
Experimental: as §1, §2, §3, §4

Candida albicans A-26 [4] = experiment: Agar plate disc diffusion test (MIC); type: cell-based; details: 0.01M sodium borate pH 7.5; 20 μg/disc top, twofold dilutions; 24 hours, 30° C.
Experimental: as §1
(§5) *Compounds were suspended in 0.01M sodium borate solution, pH 7.5. The
(§6) compounds were tested at 20 μg/disc at top level and at twofold
(§7) dilutions until end points were reached. Incubation: 24 hours; 30°

[5] = tested on: Trichophyton mentagrophytes #6; experiment: Agar plate disc diffusion test (MIC); type: cell-based; details: 0.01M sodium borate pH 7.5; 20 μg/disc top, twofold dilutions; 24 hours, 30° C.
Experimental: as §1, §5, §6, §7

Candida albicans = experiment: Agar dilution test against strains of Candida albicans (MIC); type: cell-based
Experimental: as §1

Candida albicans A-26 [6] = experiment: In vivo activity against Candida albicans A-26 infection in mice; parameters: species or system mice infected with Candida albicans A-26; details: Candida albicans, A26, sc, 24 h; for minimal effective dose: read-out: Lowest Active Dose
Experimental: The results of in vivo tests to evaluate the effectiveness of the compound of Examples 1-16 against an infection caused by Candida albicans A-26 in mice are given in Table V, where activity is measured by the ED50 value (the dose in mg/kg. required to cure 50% of the test animals). Where an ED50 value was not obtained, activity is indicated by the lowest dose at which a significant anti-fungal effect is observed. In this test, groups of male albino mice (specific pathogen free), weighing 18 to 20 grams, are infected intravenously with Candida albicans A-26. The animals are X-irradiated 24 hours prior to infection at about 50 roentgens per minute for 8 minutes (400 total dose) to reduce immune responses to the infecting organism. At 0, 4, and 24 hours post infection each group of mice is given graded doses subcutaneously of the test compound as a suspension in 33% polyethylene glycol-water. The day of death for each animal is recorded.
mg/kg. Dosages given 0, 4, and 24 hours post injection as suspension of
test compound in 30% PEG--H2 O. Number of mice receiving test
compounds at each dosage level; 6 mice per group. Number of mice in
control (untreated) group: 10 mice per group.
**As measured by increase in survival time of treated animals versus
control, calculated by method of Reed v Mueuch, American J. Hygiene, 27,

[7] = Blood levels after oral administration in mice (bioassay vs. Aspergillus montevidensis A35137); details: mouse, in vivo; for concentration at 4 h: po; for Blood Levels After Oral Administration In Mice: 240 min
Excerpt: determined by bioassay vs. Aspergillus montevidensis A35137.

[8] = Toxicity in dog, intravenous administration; type: in vivo; details: 100 mg/kg per day for five days
[9] = X52, suspension in methanol 1 mg/ml, 7mm disc, 24-48 hours at 25-37° C., read-out: Size of zone of inhibition, Saccharomyces pastoranius X-52
[10] = Neurospora crassa, 846, suspension in methanol 1 mg/ml, 7mm disc, 24-48 hours at 25-37° C., read-out: Size of zone of inhibition, Neurospora crassa 846
[11] = A23, suspension in methanol 1 mg/ml, 7mm disc, 24-48 hours at 25-37° C., read-out: Size of zone of inhibition, Trichophyton mentagraphytes A-23
[12] = mice, subcutaneous, schedule A (40, 20, 15, and 10 mg/kg), 0, 4, 24 hours, increase in survival time, read-out: ED50
[13] = mice, subcutaneous, schedule A (40, 20, 15, and 10 mg/kg), 0, 4, 24 hours
[14] = Neurospora crassa, 846, suspension in methanol 1 mg/ml, 7mm disc, *distinct measurable zone of inhibition with regrowth of organism around disc, read-out: Size of zone of inhibition, Neurospora crassa 846 (*)

| Compound | MIC, Candida albicans A-26 (Candida albicans A-26 [4]) | MIC, Trichophyton mentagrophytes #6 [5] | Blood Levels After Oral Administration In Mice [7] | Size of zone of inhibition, Candida albicans A-26 (Candida albicans A-26 [2]) | zone of inhibition at 1000 µg/mL [1, 9] | zone of inhibition at 1000 µg/mL (Neurospora crassa 846; [10]) | zone of inhibition at 1000 µg/mL [3, 11] | ED50 (Candida albicans A-26 [6]; [12]) | minimal effective dose (Candida albicans A-26 [6]; [13]) | zone of inhibition at 1000 µg/mL (Neurospora crassa 846; [14]) | further results |
| --- | --- | --- | --- | --- | --- | --- | --- | --- | --- | --- | --- |
| CCCCCCCCCCCCC(=O)N[C@H]1C[C@@H](O)[C@@H](O)NC(=O)[C@@H]2[C@@H](O)[C@@H](C)CN2C(=O)[C@H]([C@@H](C)O)NC(=O)[C@H]([C@H](O)[C@@H](O)c2ccc(O)cc2)NC(=O)[C@@H]2C[C@@H](O)CN2C(=O)[C@H]([C@@H](C)O)NC1=O [Example 2, n-Tridecanoyl Derivative of A-30912A Nucleus] (Tridecanoyl-[Orn(4R-OH,5R-OH)]T[Hyp][hTyr(3S-OH,4S-OH)]T[Pro(3S-OH,4S-Me)]; lactam 1-C) | 0.625 μg/disc | 0.039 μg/disc |  | 30 mm |  |  |  |  |  |  | zone of inhibition at 1000 µg/mL ([1]; X52, read-out: Size of zone of inhibition, Saccharomyces pastoranius X-52): 21 mm; zone of inhibition at 1000 µg/mL (Neurospora crassa 846; Neurospora crassa, 846, read-out: Size of zone of inhibition, Neurospora crassa 846 (*)): 32 mm; zone of inhibition at 1000 µg/mL ([3]; A23, read-out: Size of zone of inhibition, Trichophyton mentagraphytes A-23 (*)): 60 mm; MIC (Candida albicans; read-out: MIC, Candida albicans A26): 0.312 µg/mL (≈ 0.314 µM); MIC (Candida albicans; strain SBH 16, agar dilution, read-out: MIC, Candida albicans SBH 16): 0.625 µg/mL (≈ 0.629 µM); MIC (Candida albicans; strain SBH 28, agar dilution, read-out: MIC, Candida albicans SBH 28): 0.625 µg/mL (≈ 0.629 µM); MIC (Candida albicans; strain SBH 29, agar dilution, read-out: MIC, Candida albicans SBH 29): 0.625 µg/mL (≈ 0.629 µM); MIC (Candida albicans; strain SBH 31, agar dilution, read-out: MIC, Candida albicans SBH 31): 0.625 µg/mL (≈ 0.629 µM); ED50 (Candida albicans A-26 [6]): 34 mg/kg; minimal effective dose (Candida albicans A-26 [6]): 20 mg/kg; concentration at 4 h ([7]; four hours after 416 mg/kg by gavage, suspension in 33% PEG 400-H2O, read-out: Blood Levels After Oral Administration In Mice): 100 ng/mL; SGPT levels [8]: increased SGPT levels; hemolysis [8]: evidence of hemolysis; outward signs of toxicity [8]: no outward signs of toxicity |
| CC/C=C\C/C=C\C/C=C\CCCCCCCC(=O)N[C@H]1C[C@@H](O)[C@@H](O)NC(=O)[C@@H]2[C@@H](O)[C@@H](C)CN2C(=O)[C@H]([C@@H](C)O)NC(=O)[C@H]([C@H](O)[C@@H](O)c2ccc(O)cc2)NC(=O)[C@@H]2C[C@@H](O)CN2C(=O)[C@H]([C@@H](C)O)NC1=O [Example 11] (X1-[Orn(4R-OH,5R-OH)]T[Hyp][hTyr(3S-OH,4S-OH)]T[Pro(3S-OH,4S-Me)]; lactam 1-C) | 1.25 μg/disc | 0.039 μg/disc | 0 ng/mL | 30 mm | 16 mm |  | 36 mm | > 40 mg/kg | > 40 mg/kg | 33 mm |  |
| CCCCCCCCCCCCCCCCCCC(=O)N[C@H]1C[C@@H](O)[C@@H](O)NC(=O)[C@@H]2[C@@H](O)[C@@H](C)CN2C(=O)[C@H]([C@@H](C)O)NC(=O)[C@H]([C@H](O)[C@@H](O)c2ccc(O)cc2)NC(=O)[C@@H]2C[C@@H](O)CN2C(=O)[C@H]([C@@H](C)O)NC1=O [Example 12] (Nonadecanoyl-[Orn(4R-OH,5R-OH)]T[Hyp][hTyr(3S-OH,4S-OH)]T[Pro(3S-OH,4S-Me)]; lactam 1-C) | 2.5 μg/disc and 5.0 μg/disc | 1.25 μg/disc and 0.625 μg/disc |  | 19 mm | 17 mm |  |  |  | ≥ 5 mg/kg | 18 mm | zone of inhibition at 1000 µg/mL ([3]; A23, suspension in methanol 1 mg/ml, 7mm disc, *distinct measurable zone of inhibition with regrowth of organism around disc, read-out: Size of zone of inhibition, Trichophyton mentagraphytes A-23 (*)): 22 mm; concentration at 4 h ([7]; 416 mg/kg): 54000 ng/mL |

Second part, led by results:

| MIC, Candida albicans A-26 (Candida albicans A-26 [4]) | MIC, Trichophyton mentagrophytes #6 [5] | Blood Levels After Oral Administration In Mice [7] | Compound | Size of zone of inhibition, Candida albicans A-26 (Candida albicans A-26 [2]) | zone of inhibition at 1000 µg/mL [1, 9] | zone of inhibition at 1000 µg/mL (Neurospora crassa 846; [10]) | zone of inhibition at 1000 µg/mL [3, 11] | ED50 (Candida albicans A-26 [6]; [12]) | minimal effective dose (Candida albicans A-26 [6]; [13]) | zone of inhibition at 1000 µg/mL (Neurospora crassa 846; [14]) | further results |
| --- | --- | --- | --- | --- | --- | --- | --- | --- | --- | --- | --- |
| 5.0 μg/disc | 5 μg/disc | 0 ng/mL | CCCCCCCCCCCCCCCCCCCC(=O)N[C@H]1C[C@@H](O)[C@@H](O)NC(=O)[C@@H]2[C@@H](O)[C@@H](C)CN2C(=O)[C@H]([C@@H](C)O)NC(=O)[C@H]([C@H](O)[C@@H](O)c2ccc(O)cc2)NC(=O)[C@@H]2C[C@@H](O)CN2C(=O)[C@H]([C@@H](C)O)NC1=O [Example 13] (Arachidoyl-[Orn(4R-OH,5R-OH)]T[Hyp][hTyr(3S-OH,4S-OH)]T[Pro(3S-OH,4S-Me)]; lactam 1-C) | 16 mm | 18 mm | 13 mm | 16 mm | 40 mg/kg | 10 mg/kg |  |  |
| 5.0 μg/disc | 5 μg/disc | 0 ng/mL | CCCCCCCCCCCCCCCCCCCCCC(=O)N[C@H]1C[C@@H](O)[C@@H](O)NC(=O)[C@@H]2[C@@H](O)[C@@H](C)CN2C(=O)[C@H]([C@@H](C)O)NC(=O)[C@H]([C@H](O)[C@@H](O)c2ccc(O)cc2)NC(=O)[C@@H]2C[C@@H](O)CN2C(=O)[C@H]([C@@H](C)O)NC1=O [Example 15] (Docosanoyl-[Orn(4R-OH,5R-OH)]T[Hyp][hTyr(3S-OH,4S-OH)]T[Pro(3S-OH,4S-Me)]; lactam 1-C) | 12 mm | 19 mm | 15 mm | 20 mm | > 40 mg/kg | > 40 mg/kg |  |  |

Source: US4320052A, “Derivatives of A-30912A nucleus” (Eli Lilly and Company, priority 1980, dated 1982)
